In one assay the target is T1, P2X purinoceptor 2 (Homo sapiens, UniProt Q9UBL9).
T1 sequence (Q9UBL9 whole entry): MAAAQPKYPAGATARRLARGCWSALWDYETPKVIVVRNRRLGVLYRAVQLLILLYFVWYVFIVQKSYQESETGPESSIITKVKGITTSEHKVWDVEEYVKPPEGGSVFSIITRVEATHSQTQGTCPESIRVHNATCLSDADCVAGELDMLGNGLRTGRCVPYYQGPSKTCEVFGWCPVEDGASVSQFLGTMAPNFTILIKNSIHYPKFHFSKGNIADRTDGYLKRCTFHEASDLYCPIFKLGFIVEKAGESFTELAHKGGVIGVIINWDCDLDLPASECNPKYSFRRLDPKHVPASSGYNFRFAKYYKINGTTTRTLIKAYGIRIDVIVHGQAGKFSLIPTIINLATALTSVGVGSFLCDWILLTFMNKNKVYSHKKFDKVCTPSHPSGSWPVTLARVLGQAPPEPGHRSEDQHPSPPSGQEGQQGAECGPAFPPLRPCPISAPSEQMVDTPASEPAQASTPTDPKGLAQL
Kind of assay: Inhibitory concentration against human P2X purinoceptor 2 (hP2X2) expressed in 1321N1 astrocytoma cells. Format: functional, cell-based.

The nature of assay [1]: Inhibitory concentration against P2X purinoceptor 2/3 expressed in 1321N1 astrocytoma cells. Format: functional, cell-based, Homo sapiens.
The next assay concerns the target T2, P2X purinoceptor 3 (Homo sapiens, UniProt P56373).
T2 sequence (P56373 whole entry): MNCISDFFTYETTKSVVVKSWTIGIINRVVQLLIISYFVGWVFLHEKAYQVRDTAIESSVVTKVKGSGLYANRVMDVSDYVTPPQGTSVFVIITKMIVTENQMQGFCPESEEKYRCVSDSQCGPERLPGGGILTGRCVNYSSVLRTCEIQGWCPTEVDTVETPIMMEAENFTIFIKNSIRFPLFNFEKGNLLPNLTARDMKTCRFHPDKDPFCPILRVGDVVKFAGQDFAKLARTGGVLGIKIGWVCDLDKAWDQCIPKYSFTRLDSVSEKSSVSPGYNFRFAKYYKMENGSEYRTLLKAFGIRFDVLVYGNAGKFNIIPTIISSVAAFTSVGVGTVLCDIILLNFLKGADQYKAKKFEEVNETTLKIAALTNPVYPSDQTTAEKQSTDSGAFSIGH
The assay can be described thus: Inhibitory concentration against human P2X purinoceptor 3 (hP2X3) expressed in CHO-K1 cells. It counts as functional, cell-based.

A further assay deals with T3, P2X purinoceptor 1 (Homo sapiens, UniProt P51575).
T3 sequence (P51575 whole entry): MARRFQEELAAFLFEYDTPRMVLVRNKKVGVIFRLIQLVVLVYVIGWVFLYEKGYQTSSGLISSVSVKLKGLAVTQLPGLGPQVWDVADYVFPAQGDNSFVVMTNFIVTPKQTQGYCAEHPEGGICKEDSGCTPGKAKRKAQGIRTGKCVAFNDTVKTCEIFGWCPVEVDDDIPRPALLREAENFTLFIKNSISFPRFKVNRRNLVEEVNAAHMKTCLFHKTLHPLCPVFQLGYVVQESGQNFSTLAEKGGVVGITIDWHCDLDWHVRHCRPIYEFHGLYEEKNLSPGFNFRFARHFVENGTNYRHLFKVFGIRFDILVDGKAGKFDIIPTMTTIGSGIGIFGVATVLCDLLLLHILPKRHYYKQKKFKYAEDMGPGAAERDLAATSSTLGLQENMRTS
Kind of assay: Inhibitory concentration against human P2X purinoceptor 1 (hP2X1) expressed in CHO-K1 cells. Format: functional, cell-based.

SMILES strings stand for the structures. Bounds are passed on as bounds.

Broadly, the IC50 is the midpoint of a concentration-inhibition curve. Read a high IC50 as a need for much substance.

For the compound `O=C(N[C@H](Cc1cscn1)C(=O)N[C@@H](CC1CCCCC1)[C@@H](O)[C@@H](O)C1CC1)c1nc2ccccc2[nH]1`, the half-inhibitory concentration (IC50) against P2X purinoceptor 2 was greater than 100 µM; in assay [1] it was greater than 100 µM; against P2X purinoceptor 3, greater than 100 µM; against P2X purinoceptor 1 it was 3 µM.

Source of the values: ChEMBL document CHEMBL1139575, “Discovery and synthesis of a novel and selective drug-like P2X(1) antagonist” (Bioorg Med Chem Lett, 2005).
